These are literature values, as cited in patent US20200039732A1, “DEVICES FOR DISPENSING A HYDROFLUOROOLEFIN VAPOCOOLANT COMPOSITION AS AN AEROSOL” (GEBAUER COMPANY, priority 2016, published 2020).

The structures appear in SMILES notation. Like-named read-outs stand apart in the source and are kept apart here.

For this series the following is noted: for Liquid Viscosity / Surface Tension: at 20° C.

For `FC(F)CC(F)(F)F` [HFC-245fa, 1,1,1,3,3-pentafluoropropane], the “Liquid Viscosity” value is recorded as 0.402 cP and the “Surface Tension” value is recorded as 13.6 dyne/cm. Further, the Pvap (25° C.) is given as 0.124 MPa. Further, for the setting “80° C.”, the Pvap is on record as 0.789 MPa.
As to `FC(F)(F)/C=C/Cl` [HCFO-1233zd, trans-1-chloro-3,3,3-trifluoropropene], the “Liquid Viscosity” value is recorded as 0.319 cP and the “Surface Tension” value was 14.039 dyne/cm. Moreover, the Pvap (25° C.) was 0.108 MPa. The Pvap (80° C.) was 0.650 MPa.
Consider `CC(C)C` [Iso-Butane, isobutane], for which the “Liquid Viscosity” value was 0.156 cP and the “Surface Tension” value is given as 10.3 dyne/cm. For the same molecule, the Pvap (25° C.) is reported as 0.319 MPa. Further, the Pvap (80° C.) is 1.5 MPa.
With `FCC(F)(F)F` [HFC-134a, 1,1,1,2-tetrafluoroethane], the “Liquid Viscosity” value was 0.202 cP and the “Surface Tension” value is 8.69 dyne/cm. The Pvap (25° C.) was 0.665 MPa. The Pvap (80° C.) was 2.63 MPa.
Consider `F/C=C/C(F)(F)F` [HFO-1234ze, trans-1,3,3,3-tetrafluoroprop-1-ene], for which the “Liquid Viscosity” value was 0.489 cP and the “Surface Tension” value is recorded as 13.3 dyne/cm. In addition, the Pvap (25° C.) is on record as 0.484 MPa. Further, under “80° C.”, the Pvap is reported as 2.01 MPa.
For `CCCl` [Ethyl Chloride, chloroethane], the “Liquid Viscosity” value was 0.279 cP and the “Surface Tension” value is given as 19.5 dyne/cm. Further, the Pvap (25° C.) is 0.135 MPa. Besides, the Pvap (80° C.) was 0.745 MPa.
